# From patent publication US20220408725A1, “NEW DEFOLIANT AND APPLICATION THEREOF” (CHENGDU NEWSUN CROP SCIENCE CO., LTD., priority 2020, published 2022)
# Tested on: pepper plants
# Test: Pot spray test of defoliants on pepper plants (defoliation rate and fruit abscission rate)
# Assay type: in vivo
# Details: sprayed once
# Method: 1 Test temperature and humidity
# The defoliant listed in Table 1 is diluted to a certain extent for application. See Table 2 for the active constituents and dilution factor of the defoliant.
# 100X, 160X and 400X dilution of the C12-C14 fatty alcohol polyoxyethylene (5) ether refers to 100X, 160X and 400X dilution of the defoliant listed in Table 1 containing an active constituent of C12-C14 fatty alcohol polyoxyethylene (5) ether. 160X+1400X dilution of the C12-C14 fatty alcohol polyoxyethylene (5) ether+40% ethephon refers to 160X dilution of the defoliant listed in Table 1 containing an active constituent of C12-C14 fatty alcohol polyoxyethylene (5) ether and mixture with 40% ethephon subject to 1400X dilution, equivalent to that the mixed solution contains 0.5% of C12-C14 fatty alcohol polyoxyethylene (5) ether and 0.029% of ethephon.
# A total of 7 treatment plots (including 1 for control group, with water) are arranged for the test, each including 5 pots.
# Spray method. The test reagent is prepared according to the design requirements, and then applied once to each treatment plot by uniformly spraying it onto each pot as per 100 ml/m^2 of water consumption, while ensuring consistent spray onto each treatment plot and sufficient spray to cover the whole plant.
# Investigating the total number of treated leaves and fruits of each plant before application of the reagent, and 3 days, 5 days, 7 days, 20 days and 25 days after the application, calculating the defoliation rate and observing the influence on fruits.
# Adding fixedly 150 ml of water to each pot each time.
# According to the investigated data, calculating the defoliation rate as per equation (1), in the unit of percentage (%), rounded to two decimal places.
# (1) Defoliation rate (%)=(total number of treated leaves—number of remaining leaves)/total number of treated leaves.
# (2) Corrected defoliation rate (%)=(defoliation rate of the treatment plot—defoliation rate of the control group)/(1-defoliation rate of the control group)*100.
# If the defoliation rate of the control group <5%, correction is not required; otherwise, the result should be corrected as per equation (2).
# (3) Fruit abscission rate (%)=(total number of treated fruits—number of remaining fruits)/total number of treated fruits.
# The defoliation effect on the pepper plants is analyzed through comparison of the results of the pots before and after application of the reagent and the control group.
# [1] = 100X dilution of Table 1 defoliant
# [2] = 160X dilution of Table 1 defoliant
# [3] = 400X dilution of Table 1 defoliant
Substance,Defoliation rate 3 days after application [1],Defoliation rate 5 days after application [1],Defoliation rate 7 days after application [1],Defoliation rate 20 days after application [1],Defoliation rate 25 days after application [1],Defoliation rate 3 days after application [2],Defoliation rate 5 days after application [2],Defoliation rate 7 days after application [2],Defoliation rate 20 days after application [2],Defoliation rate 25 days after application [2],Defoliation rate 3 days after application [3],Defoliation rate 5 days after application [3],Defoliation rate 7 days after application [3],Defoliation rate 20 days after application [3],Defoliation rate 25 days after application [3]
C12-C14 fatty alcohol polyoxyethylene (5) ether [Treatment 1],60.03%,78.72%,94.97%,69.9%,18.42%,66.25%,70.63%,79.71%,73.64%,51.64%,−1.46%,4.66%,14.5%,26.17%,17.95%
Full branched-chain C12 fatty alcohol polyoxyethylene (5) ether [Treatment 2],72.15%,87.4%,100%,84.33%,75.8%,74.69%,85.12%,93.59%,72.18%,18.07%,5.58%,16.17%,21.83%,32.56%,7.88%
Isomeric C13 fatty alcohol polyoxyethylene (5) ether [Treatment 4],23.88%,40.42%,66.7%,64.66%,16.35%,14.35%,16.59%,25.25%,27.79%,7.78%,−3.15%,−2.02%,5.81%,8.88%,−2.16%
Straight-chain C12-14 fatty alcohol polyoxyethylene (5) ether [Treatment 3],54.46%,68.84%,86.02%,69.02%,35.12%,38.84%,43.16%,64.73%,56.79%,35.09%,6.99%,10.84%,15.88%,27.07%,8.36%
